Data: patent US11596696B2, “Combination therapy with an anti-CD25 antibody-drug conjugate” (ADC Therapeutics SA, priority 2017, dated 2023)

What was measured:
[1] = tested on: surface CD25 on Karpas299 cell line; assay: Surface CD25 by flow cytometry after decitabine (Example 6); assay type: cell-based; parameters: dose or concentration left out as unconfirmed; details: in the presence of decitabine
Protocol: After incubation, two parameters were measured: the amount of surface CD25 (as determined by flow cytometry) and the in vitro cytotoxicity of the combinations (as determined by MTS assays).

advanced melanoma = details: phase III; compared to the standard of care (temozolomide or dacarbazine); cited from earlier work
[2] = tested on: CD25 surface protein on KG-1 cells; assay: CD25 surface protein, antibodies bound per cell, QuantiBRITE-PE flow cytometry (Example 9); assay type: cell-based, human
Text: (§1) Cells were then washed and run on a Fortessa X20 flow cytometer.

[3] = tested on: CD25 surface protein on Karpas-299 cells; assay: as above; assay type: cell-based, human
Text: as §1

[4] = tested on: surface CD25 on Karpas299 cell line; assay: Surface CD25 by flow cytometry (FACS) after Cytarabine (Example 5); assay type: cell-based; details: Karpas299 cell line (high in CD25) incubated with Cytarabine
Protocol: (§2) After incubation, two parameters were measured: the amount of surface CD25 (as determined by flow cytometry) and the in vitro cytotoxicity of the combinations (as determined by CellTiter-Glo® or MTS assays). Cytotoxic synergy was calculated by transforming the cell viability data into fraction affected, and calculating the combination index (Table 1) using the CalcuSyn analysis program.

[5] = tested on: surface CD25 on KG-1 cells; assay: as above; assay type: cell-based; details: CD25(+) KG-1 cells (low CD25) incubated with Cytarabine
Protocol: as §2

[6] = tested on: IL2Ralpha (CD25) mRNA in KG-1 cells; assay: CD25 mRNA expression by TaqMan qRT-PCR (Example 9); assay type: cell-based; details: 30 nM Cytarabine
Protocol: (§3) Karpas-299, EOL-1 or KG-1 cells were incubated with 30 nM Cytarabine for 24 hours before mRNA was isolated and reverse-transcribed. cDNA was probed for IL2Ralpha (CD25) by TagMan qRT-PCR. Mean fold change in expression compared to the untreated control was calculated using the ddCT method using the reference gene abl-1. A time-course to measure expression change over 3-4 days was also done in Karpas-299 (high CD25 expressing) and KG-1 cells (low CD25 expressing) under the same conditions, only extending incubation time with Cytarabine.

[7] = tested on: IL2Ralpha (CD25) mRNA in Karpas-299 cells; assay: CD25 mRNA expression by TaqMan qRT-PCR (Example 9); assay type: cell-based; details: Karpas299 cells; 30 nM Cytarabine; over the 72 hour period
Protocol: as §3

## Nc1ncn([C@H]2C[C@H](O)[C@@H](CO)O2)c(=O)n1 [Decitabine, 4-Amino-1-(2-deoxy-β-D-erythro-pentofuranosyl)-1,3,5-triazin-2(1H)-one]
[1]
  Amount of CD25 on the cells: no difference

## tremelimumab: anti-CTLA4 antibody
Advanced melanoma
  Overall survival of patients: did not significantly increase the overall survival

## Nc1ccn([C@@H]2O[C@H](CO)C(O)[C@@H]2O)c(=O)n1 (stereo in doubt) [Cytarabine, 4-amino-1-[(2R,3S,4R,5R)-3,4-dihydroxy-5-(hydroxymethyl)oxolan-2-yl] pyrimidin-2-one]
[2]; KG-1 cells treated with 30 nM Cytarabine 24 hours (untreated ~200)
  Mean number of CD25 antibodies bound per cell: ~400 antibodies per cell
[2]; KG-1 cells, 30 nM Cytarabine, 24 hours
  Levels of CD25 surface expression: significantly increased
[3]; Karpas299 cells treated with 30 nM Cytarabine 24 hours (untreated the same)
  Mean number of CD25 antibodies bound per cell: ~60000 antibodies per cell
[3]; Karpas299 cells, 30 nM Cytarabine, 24 hour period
  Effect on CD25 surface protein expression: little effect
[4]
  Change in surface CD25: No increase
[5]
  Change in surface CD25 levels (FACS analysis): two-fold increase
[6]; after 24 hours incubation
  Increase in CD25 mRNA expression vs untreated control: 2 fold
[6]; after 48 hours incubation
  Increase in CD25 mRNA expression vs untreated control: 4 fold
[6]; after 96 hours incubation
  Increase in CD25 mRNA expression vs untreated control: 3 fold
[7]
  Effect on CD25 mRNA expression: little effect
